In patent publication US8445462B2, “Composition for the treatment of osteoarthritis” (Bioiberica, S.A., priority 2007, dated 2013):
Where a name gives a salt, the structure may show the parent alone.

Test system: experimental osteoarthritis induced by partial medial meniscectomy in guinea pigs
Assay: Experimental osteoarthritis induced by partial medial meniscectomy in guinea pigs: chondroprotective activity and modified Mankin histological evaluation
Format: in vivo, Dunkin Hartley (DH) guinea pigs
Details: CS 95 mg/kg/day, Man 60 mg/kg/day; for average chondroprotective activity (GAGs, cartilage structure, chondrocyte proliferation): oral gavage once a day for 70 days, blank control group 100%, operated control group 0%; for global histopathological score (modified Mankin) with respect to the operated group, result in words: oral, 70 days
Source text: The objective was to evaluate the chondroprotective activity (cartilage protective activity) of a composition formed by a mixture of chondroitin sulphate and mannosamine hydrochloride as sole active components, in a model of experimental osteoarthritis induced by partial medial meniscectomy in guinea pigs (A. M. Bendele, Progressive chronic osteoarthritis in femorotibial joints of partial medial meniscectomized guinea pigs, Vet. Pathol. 24, 444-448 (1987)), comparing said activity with the chondroprotective activity of chondroitin sulphate and of mannosamine hydrochloride.
Dunkin Hartley (DH) guinea pigs with a weight comprised between 580 and 699 g were used. A partial medial meniscectomy was performed in a part of them.
The following treatment groups were formed: blank control group (corresponding to healthy guinea pigs), operated control group (corresponding to guinea pigs in which a partial medial meniscectomy was performed to induce an experimental osteoarthritis in them), operated guinea pigs to which the sodium salt of chondroitin sulphate (95 mg/kg of body weight/day) was administered, operated guinea pigs to which mannosamine hydrochloride (60 mg/kg of body weight/day) was administered, operated guinea pigs to which a mixture of sodium salt of chondroitin sulphate (95 mg/kg of body weight/day) and mannosamine hydrochloride (60 mg/kg of body weight/day) was administered.
On the day after the surgery, the daily administration of the corresponding oral treatments by means of gastric gavage was started, the carrier used being water for injection. The blank control and operated control groups only received the carrier (water for injection) by oral route.
The treatments were administered once a day for 70 days (ten weeks). The body weight and the clinical signs of the animals were recorded twice a day. No remarkable clinical signs were observed throughout the treatment period.
On the day after the administration had ended, the animals were sacrificed by anaesthetic overdose (pentobarbital sodium) and the femorotibial joint of the right rear leg was removed for its fixing in 10% formol for at least 48 hours. Then, they were decalcified, included in paraffin, the necessary sections were obtained and the stainings with Hematoxylin-Eosin and Safranin-O-Fast Green (or Toluidine Blue) were performed for their histological evaluation, which was performed by a pathologist in a blind manner.
The severity of the osteoarthritic injuries was evaluated by means of the modified histologic/histochemical scale of Mankin et al. (H J. Mankin and L. Lipiello Biochemical and metabolic abnormalities in articular cartilage from osteoarthritic human hips. J. Bone Joint Surg.-Amer. 53-A, 523-537 (1971)). […]

Compound	average chondroprotective activity (GAGs, cartilage structure, chondrocyte proliferation)	global histopathological score (modified Mankin) with respect to the operated group, result in words
N[C@@H]1C(O)O[C@H](CO)[C@@H](O)[C@@H]1O (stereo partly drawn) [mannosamine hydrochloride, 2-amino-2-deoxy-D-mannose]	−21%	no statistically significant differences
chondroitin sulphate	12%	improvement with respect to the operated group, but without statistical significance
